Laboratory results: publication PMC4460250, “Systems Pharmacology Dissecting Holistic Medicine for Treatment of Complex Diseases: An Example Using Cardiocerebrovascular Diseases Treated by TCM” (Evidence-based Complementary and Alternative Medicine : eCAM, 2015)

Experiments:
[1] = in vivo
[2] = in vivo; cited from earlier work

Row | Structure (SMILES) | Class(High: HIA value ≥0.7; Low: HIA value < 0.7) [1] | HIA(Human Intestinal Absorption) [2]
1 | COc1cc2nc(N3CCN(C(=O)[C@@H]4CCCO4)CC3)nc(N)c2cc1OC [Terazosin(S)] | High (key: High: HIA value ≥0.7; Low: HIA value < 0.7) | 0.91
2 | COc1ccc2c3c1O[C@H]1C(=O)CC[C@@]4(O)[C@@H](C2)N(C)CC[C@]314 [Oxycodone] | Low (key: High: HIA value ≥0.7; Low: HIA value < 0.7) | 0.6
3 | CC[C@@H](c1ccccc1)c1c(O)c2ccccc2oc1=O [Phenprocoumon(S)] | High (key: High: HIA value ≥0.7; Low: HIA value < 0.7) | 0.95
4 | CC(C)NC[C@@H](O)c1cc(O)cc(O)c1 [Metaproterenol(S)] | Low (key: High: HIA value ≥0.7; Low: HIA value < 0.7) | 0.43
5 | CN[C@@H]1[C@@H](O)[C@@H](O[C@@H]2[C@@H](O)[C@H](O[C@H]3O[C@H]([C@@H](C)N)CC[C@H]3N)[C@@H](N)C[C@H]2N)OC[C@]1(C)O [GentamicinC2(R)] | Low (key: High: HIA value ≥0.7; Low: HIA value < 0.7) | 0.01
6 | CN1C(=O)CC(=O)N(c2ccccc2)c2cc(Cl)ccc21 [Clobazam] | High (key: High: HIA value ≥0.7; Low: HIA value < 0.7) | 0.87
7 | Cc1cccc(C)c1OC[C@@H](C)N [Mexiletine(R)] | High (key: High: HIA value ≥0.7; Low: HIA value < 0.7) | 0.98
8 | Cn1c(=O)c2c(ncn2CCCNC[C@H](O)c2cc(O)cc(O)c2)n(C)c1=O [Reproterol(R)] | Low (key: High: HIA value ≥0.7; Low: HIA value < 0.7) | 0.6
9 | C[C@@H](NC(C)(C)C)C(=O)c1cccc(Cl)c1 [Bupropion(R)] | High (key: High: HIA value ≥0.7; Low: HIA value < 0.7) | 0.87
10 | NCC(=O)O [Glycine] | High (key: High: HIA value ≥0.7; Low: HIA value < 0.7) | 1
11 | CC(=O)NCCCS(=O)(=O)O [Acamprosate] | Low (key: High: HIA value ≥0.7; Low: HIA value < 0.7) | 0.11
12 | COC(=O)C1=C(C#N)NC(C)=C(C(=O)OC(C)C)[C@@H]1c1cccc([N+](=O)[O-])c1 [Nilvadipine(S)] | High (key: High: HIA value ≥0.7; Low: HIA value < 0.7) | 1
13 | COC(=O)C1=C(C#N)NC(C)=C(C(=O)OC(C)C)[C@H]1c1cccc([N+](=O)[O-])c1 [Nilvadipine(R)] | High (key: High: HIA value ≥0.7; Low: HIA value < 0.7) | 1
14 | O=C(c1ccccc1)c1ccc2n1CC[C@H]2C(=O)O [Ketorolac(R)] | High (key: High: HIA value ≥0.7; Low: HIA value < 0.7) | 0.95
15 | C[C@H](N[C@@H](CCc1ccccc1)C(=O)O)C(=O)N1CCC[C@H]1C(=O)O [Enalaprilat] | Low (key: High: HIA value ≥0.7; Low: HIA value < 0.7) | 0.25
16 | O=[N+]([O-])O[C@H]1CO[C@H]2[C@@H]1OC[C@H]2O [Isosorbide-2-mononitrate] | High (key: High: HIA value ≥0.7; Low: HIA value < 0.7) | 0.9
17 | COC(=O)C(c1ccccc1Cl)N1CCc2sccc2C1 (stereo in doubt) [Clopidogrel(R)] | Low (key: High: HIA value ≥0.7; Low: HIA value < 0.7) | 0.5
18 | COC(=O)C1=C(C)NC(C)=C(C(=O)OCC(C)C)[C@@H]1c1ccccc1[N+](=O)[O-] [Nisoldipine(R)] | High (key: High: HIA value ≥0.7; Low: HIA value < 0.7) | 0.9
19 | NCCC[C@@](N)(C(=O)O)C(F)F [Eflornithine(R)] | Low (key: High: HIA value ≥0.7; Low: HIA value < 0.7) | 0.55
20 | C[C@H](C(=O)O)c1ccc(-c2ccccc2)c(F)c1 [Flurbiprofen(S)] | High (key: High: HIA value ≥0.7; Low: HIA value < 0.7) | 0.95
21 | CCN1CCCC1CNC(=O)c1cc(S(N)(=O)=O)ccc1OC (stereo not drawn) [Sulpiride] | Low (key: High: HIA value ≥0.7; Low: HIA value < 0.7) | 0.44
22 | CCCN[C@H]1CCc2nc(N)sc2C1 [Pramipexole(S)] | High (key: High: HIA value ≥0.7; Low: HIA value < 0.7) | 0.8
23 | CCN1CCC[C@H]1CNC(=O)c1cc(S(=O)(=O)CC)ccc1OC [Sultopride(S)] | High (key: High: HIA value ≥0.7; Low: HIA value < 0.7) | 0.89

Row | Structure (SMILES) | Class(High: HIA value ≥0.7; Low: HIA value < 0.7) [1] | HIA(Human Intestinal Absorption) [2]
24 | CC[C@H](C)[C@H]1O[C@]2(CC[C@@H]1C)C[C@@H]1C[C@@H](C/C=C(\C)[C@@H](O[C@H]3C[C@H](OC)[C@@H](O[C@H]4C[C@H](OC)[C@@H](O)[C@H](C)O4)[C@H](C)O3)[C@@H](C)/C=C/C=C3\CO[C@@H]4[C@H](O)C(C)=C[C@@H](C(=O)O1)[C@]34O)O2 [Ivermectin] | Low (key: High: HIA value ≥0.7; Low: HIA value < 0.7) | 0.6
25 | CN1C[C@H](C(=O)N[C@]2(C)O[C@@]3(O)[C@@H]4CCCN4C(=O)[C@H](Cc4ccccc4)N3C2=O)C=C2c3cccc4[nH]cc(c34)C[C@H]21 [Ergotamine] | High (key: High: HIA value ≥0.7; Low: HIA value < 0.7) | 1
26 | CCN(CCO)CCC[C@@H](C)Nc1ccnc2cc(Cl)ccc12 [Hydroxychloroquine(R)] | High (key: High: HIA value ≥0.7; Low: HIA value < 0.7) | 0.9
27 | CC(Cc1ccc(O)cc1)NCC(O)c1cc(O)cc(O)c1 (stereo not drawn) [Fenoterol] | Low (key: High: HIA value ≥0.7; Low: HIA value < 0.7) | 0.6
28 | CCN(CCCCOC(=O)c1ccc(OC)c(OC)c1)[C@@H](C)Cc1ccc(OC)cc1 [Mebeverine(S)] | High (key: High: HIA value ≥0.7; Low: HIA value < 0.7) | 0.9
29 | COc1ccc(CCN(C)CCCN2CCc3cc(OC)c(OC)cc3CC2=O)cc1OC [Zatebradin] | High (key: High: HIA value ≥0.7; Low: HIA value < 0.7) | 0.79
30 | CN(C)C(=O)O[C@H]1N=C(c2ccccc2)c2cc(Cl)ccc2N(C)C1=O [Camazepam(R)] | High (key: High: HIA value ≥0.7; Low: HIA value < 0.7) | 1
31 | CN(C)CC[C@H](c1ccccc1)c1ccccn1 [Pheniramine(R)] | High (key: High: HIA value ≥0.7; Low: HIA value < 0.7) | 0.99
32 | NC(=O)C[S+]([O-])C(c1ccccc1)c1ccccc1 (stereo not drawn) [Modafinil] | High (key: High: HIA value ≥0.7; Low: HIA value < 0.7) | 0.8
33 | N[C@@H](C(=O)N[C@@H]1C(=O)N2C(C(=O)O)=C(Cl)CC[C@H]12)c1ccccc1 [Loracarbef] | High (key: High: HIA value ≥0.7; Low: HIA value < 0.7) | 1
34 | CCOC(=O)C1=C(C)NC(C)=C(C(=O)OC)[C@H]1c1cccc([N+](=O)[O-])c1 [Nitrendipine(R)] | High (key: High: HIA value ≥0.7; Low: HIA value < 0.7) | 0.88
35 | CC(=O)Oc1ccc2c3c1O[C@H]1[C@@H](OC(C)=O)C=C[C@H]4[C@@H](C2)N(C)CC[C@@]341 [Diacetylmorphine] | High (key: High: HIA value ≥0.7; Low: HIA value < 0.7) | 1
36 | Clc1ccc(CO[C@H](Cn2ccnc2)c2ccc(Cl)cc2Cl)c(Cl)c1 [Miconazole(S)] | High (key: High: HIA value ≥0.7; Low: HIA value < 0.7) | 0.99
37 | NCCC[C@](N)(C(=O)O)C(F)F [Eflornithine(S)] | Low (key: High: HIA value ≥0.7; Low: HIA value < 0.7) | 0.55
38 | CC(C)(C)NCC(O)COc1nsnc1N1CCOCC1 (stereo in doubt) [Timolol(R)] | High (key: High: HIA value ≥0.7; Low: HIA value < 0.7) | 0.95
39 | O=C(NC[C@H]1CCCCN1)c1cc(OCC(F)(F)F)ccc1OCC(F)(F)F [Flecainide(R)] | High (key: High: HIA value ≥0.7; Low: HIA value < 0.7) | 0.81
40 | Cc1ccccc1N1C(=O)c2cc(S(N)(=O)=O)c(Cl)cc2N[C@H]1C [Metolazone(R)] | Low (key: High: HIA value ≥0.7; Low: HIA value < 0.7) | 0.64
41 | CCCCC(C)(O)C/C=C/[C@H]1[C@H](O)CC(=O)[C@@H]1CCCCCCC(=O)OC (stereo partly drawn) [Misoprostol(R)] | High (key: High: HIA value ≥0.7; Low: HIA value < 0.7) | 0.88
42 | CCCCCCCN(CC)CCC[C@@H](O)c1ccc(NS(C)(=O)=O)cc1 [Ibutilide(R)] | High (key: High: HIA value ≥0.7; Low: HIA value < 0.7) | 0.82
43 | CC(C)(C)NC[C@H](O)c1ccc(O)c(CO)n1 [Pirbuterol(S)] | Low (key: High: HIA value ≥0.7; Low: HIA value < 0.7) | 0.6
44 | CCCC(CCC)CCC[C@H]1COCCN1CCO [Delmopinol(S)] | High (key: High: HIA value ≥0.7; Low: HIA value < 0.7) | 0.95
45 | NC[C@H]1O[C@H](O[C@H]2[C@H](O)[C@@H](O[C@H]3O[C@H](CO)[C@@H](O)[C@H](N)[C@H]3O)[C@H](N)C[C@@H]2N)[C@H](O)[C@@H](O)[C@@H]1O [Kanamycin] | Low (key: High: HIA value ≥0.7; Low: HIA value < 0.7) | 0.01
